Laboratory results taken from patent US10271543B2, “Systems and methods for cryopreservation of cells” (Cook General Biotechnology LLC, priority 2006, dated 2019).

Experiments:
human spermatozoa = assay: Cytotoxicity of bound cholesterol on semen in culture (motility evaluations); assay type: cell-based; details: culture plates coated with 100 µl sterol solution; 1, 2, 4 and 8 hours of incubation
Description: In this experiment, liquefied semen samples were exposed to culture plates that had been coated with 100 µl of the sterol solution.

human red blood cells = details: 3.3M (30%) glycerol; over a 2-3 log range in cooling rates; cited from earlier work

SMILES	cytotoxic effect (motility evaluations) (human spermatozoa)	survival (human red blood cells)
CC(C)CCC[C@@H](C)[C@H]1CC[C@H]2[C@@H]3CC=C4C[C@@H](O)CC[C@]4(C)[C@H]3CC[C@]12C [bound cholesterol, cholesterol]	no significant cytotoxic effect	
OCC(O)CO [glycerol]		around 90%
